Measurements published in ChEMBL document CHEMBL4765282, “Design, synthesis and biological evaluation of 1H-pyrazolo [3,4-d]pyrimidine derivatives as PAK1 inhibitors that trigger apoptosis, ER stress and anti-migration effect in MDA-MB-231 cells” (Eur J Med Chem, 2020).
The source made the active and inactive calls. The calls are words filed in the database; no cut-off is given here.

How the values were obtained:
MDA-MB-231 [1] = assay: Induction of apoptosis in human MDA-MB-231 cells assessed as increase in caspase-3 cleavage at 10 to 40 uM measured after 24 hrs by Western blot analysis; type: functional, cell-based; details: dose 10-40 µM
MDA-MB-231 [2] = assay: Induction of apoptosis in human MDA-MB-231 cells assessed as increase in DNA fragmentation at 10 to 40 uM measured after 24 hrs by Hoechst 33258 staining based assay; type: functional, cell-based; details: dose 10-40 µM
[3] = Effect on CSTA gene expression in human MDA-MB-231 cells by Trizol reagent based RNA sequencing analysis relative to control; type: functional
[4] = biological target: T1, Serine/threonine-protein kinase PAK 1 (Homo sapiens, UniProt Q13153); assay: Inhibition of PAK1 phosphorylation at Thr212 residues in human MDA-MB-231 cells at 10 to 40 uM measured after 24 hrs by Western blot analysis; type: cell-based; details: dose 10-40 µM
T1 sequence (Q13153 whole entry): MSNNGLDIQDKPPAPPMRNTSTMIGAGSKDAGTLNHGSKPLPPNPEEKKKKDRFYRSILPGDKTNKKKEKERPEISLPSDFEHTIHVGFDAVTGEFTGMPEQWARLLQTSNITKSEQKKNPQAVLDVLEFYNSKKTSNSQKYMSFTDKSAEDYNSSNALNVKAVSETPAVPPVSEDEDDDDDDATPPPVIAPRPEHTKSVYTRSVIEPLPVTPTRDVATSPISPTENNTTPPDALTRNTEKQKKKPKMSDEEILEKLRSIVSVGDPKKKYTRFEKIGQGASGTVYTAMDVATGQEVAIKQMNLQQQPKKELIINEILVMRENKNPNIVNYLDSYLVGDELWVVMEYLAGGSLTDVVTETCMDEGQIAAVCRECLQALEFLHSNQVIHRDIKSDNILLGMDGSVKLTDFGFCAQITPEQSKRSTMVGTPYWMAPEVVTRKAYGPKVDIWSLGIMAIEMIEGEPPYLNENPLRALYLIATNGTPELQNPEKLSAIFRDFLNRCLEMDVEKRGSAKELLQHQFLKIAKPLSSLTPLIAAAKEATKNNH

MDA-MB-231 [5] = assay: Induction of apoptosis in human MDA-MB-231 cells assessed as necrotic cells at 10 uM measured after 24 hrs by Annexin V-FITC/propidium iodide staining based flow cytometry (reference value: 0.16%); type: functional
[6] = Effect on MMP3 gene expression in human MDA-MB-231 cells by Trizol reagent based RNA sequencing analysis relative to control; type: functional
MDA-MB-231 [7] = assay: Up regulation of E-cadherin expression in human MDA-MB-231 cells at 10 to 40 uM measured after 24 hrs by Western blot analysis; type: functional, cell-based; details: dose 10-40 µM
MDA-MB-231 [8] = assay: Induction of apoptosis in human MDA-MB-231 cells assessed as viable cells at 20 uM measured after 24 hrs by Annexin V-FITC/propidium iodide staining based flow cytometry (reference value: 98.46%); type: functional; details: read-out: Activity
[9] = Effect on TRIB3 gene expression in human MDA-MB-231 cells by Trizol reagent based RNA sequencing analysis relative to control; type: functional
MDA-MB-231 [10] = assay: Induction of apoptosis in human MDA-MB-231 cells assessed as late apoptotic cells at 10 uM measured after 24 hrs by Annexin V-FITC/propidium iodide staining based flow cytometry (reference value: 0.57%); type: functional
MDA-MB-231 [11] = assay: Induction of apoptosis in human MDA-MB-231 cells assessed as increase in caspase-8 cleavage at 10 to 40 uM measured after 24 hrs by Western blot analysis; type: functional, cell-based; details: dose 10-40 µM
[12] = biological target: T1, Serine/threonine-protein kinase PAK 1; assay: Inhibition of PAK1 in human MDA-MB-231 cells assessed as reduction in ERK expression at 10 to 40 uM measured after 24 hrs by Western blot analysis; type: cell-based; details: dose 10-40 µM
MDA-MB-231 [13] = assay: Down regulation of JNK expression in human MDA-MB-231 cells at 20 uM measured after 24 hrs by immunofluorescence assay; type: functional, cell-based
MDA-MB-231 [14] = assay: Upregulation of PERK expression in human MDA-MB-231 cells transfected with si-PAK1 at 10 uM measured after 24 hrs by Western blot analysis; type: functional, cell-based
[15] = Effect on EGR1 gene expression in human MDA-MB-231 cells by Trizol reagent based RNA sequencing analysis relative to control; type: functional
[16] = biological target: T1, Serine/threonine-protein kinase PAK 1; assay: Inhibition of PAK1 (unknown origin) […] measured after 40 mins by ADP-glo kinase assay
MDA-MB-231 [17] = assay: Induction of apoptosis in human MDA-MB-231 cells assessed as necrotic cells at 40 uM measured after 24 hrs by Annexin V-FITC/propidium iodide staining based flow cytometry (reference value: 0.16%); type: functional
[18] = Effect on PPP1R15A gene expression in human MDA-MB-231 cells by Trizol reagent based RNA sequencing analysis relative to control; type: functional
[19] = Effect on GARS gene expression in human MDA-MB-231 cells by Trizol reagent based RNA sequencing analysis relative to control; type: functional
[20] = Effect on CASC10 gene expression in human MDA-MB-231 cells by Trizol reagent based RNA sequencing analysis relative to control; type: functional
[21] = biological target: T1, Serine/threonine-protein kinase PAK 1; assay: Inhibition of PAK1 in human MDA-MB-231 cells assessed as reduction in ERK1/2 phosphorylation at Thr202/Tyr204 residues at 10 to 40 uM measured after 24 hrs by Western blot analysis; type: cell-based; details: dose 10-40 µM
[22] = Effect on DDIT3 gene expression in human MDA-MB-231 cells by Trizol reagent based RNA sequencing analysis relative to control; type: functional
Homo sapiens [23] = species: Homo sapiens; assay: Selectivity ratio of IC50 for inhibition of PAK3 (unknown origin) to IC50 for inhibition of PAK1 (unknown origin)
[24] = Effect on KLF15 gene expression in human MDA-MB-231 cells by Trizol reagent based RNA sequencing analysis relative to control; type: functional
MDA-MB-231 [25] = assay: Upregulation of phosphorylated PERK Thr980 expression in human MDA-MB-231 cells at 10 to 40 uM measured after 24 hrs by Western blot analysis; type: functional, cell-based; details: dose 10-40 µM
Homo sapiens [26] = species: Homo sapiens; assay: Selectivity ratio of IC50 for inhibition of PAK2 (unknown origin) to IC50 for inhibition of PAK1 (unknown origin)
[27] = Effect on ASNS gene expression in human MDA-MB-231 cells by Trizol reagent based RNA sequencing analysis relative to control; type: functional
MDA-MB-231 [28] = assay: Inhibition of human MDA-MB-231 cell migration measured after 24 hrs by phase contrast microscopy based transwell assay; type: functional
[29] = Effect on CDHR4 gene expression in human MDA-MB-231 cells by Trizol reagent based RNA sequencing analysis relative to control; type: functional; details: dose 10-40 µM; time 24 hrs
MDA-MB-231 [30] = assay: Induction of apoptosis in human MDA-MB-231 cells assessed as viable cells at 10 uM measured after 24 hrs by Annexin V-FITC/propidium iodide staining based flow cytometry (reference value: 98.46%); type: functional; details: read-out: Activity
[31] = Effect on HYOU1 gene expression in human MDA-MB-231 cells by Trizol reagent based RNA sequencing analysis relative to control; type: functional
MDA-MB-231 [32] = assay: Upregulation of ATF4 expression in human MDA-MB-231 cells at 10 to 40 uM measured after 24 hrs by Western blot analysis; type: functional, cell-based; details: dose 10-40 µM
MDA-MB-231 [33] = assay: Induction of apoptosis in human MDA-MB-231 cells assessed as down regulation of Bcl-2 expression at 10 to 40 uM measured after 24 hrs by Western blot analysis; type: functional, cell-based; details: dose 10-40 µM
[34] = Effect on GRID1 gene expression in human MDA-MB-231 cells by Trizol reagent based RNA sequencing analysis relative to control; type: functional
[35] = Effect on TCP10L gene expression in human MDA-MB-231 cells by Trizol reagent based RNA sequencing analysis relative to control; type: functional
MDA-MB-231 [36] = assay: Induction of apoptosis in human MDA-MB-231 cells assessed as late apoptotic cells at 20 uM measured after 24 hrs by Annexin V-FITC/propidium iodide staining based flow cytometry (reference value: 0.57%); type: functional
MDA-MB-231 [37] = assay: Up regulation of MMP-2 expression in human MDA-MB-231 cells at 10 to 40 uM measured after 24 hrs by Western blot analysis; type: functional, cell-based; details: dose 10-40 µM
[38] = Effect on BEX2 gene expression in human MDA-MB-231 cells by Trizol reagent based RNA sequencing analysis relative to control; type: functional
[39] = Effect on STC2 gene expression in human MDA-MB-231 cells by Trizol reagent based RNA sequencing analysis relative to control; type: functional

O=C(Nc1cc(C(F)(F)F)cc(C(F)(F)F)c1)NC1CCN(c2ncnc3[nH]ncc23)CC1
Activity (MDA-MB-231 [1]): Active | Activity (MDA-MB-231 [2]): Active | fold change (FC) [3]: >2 | inhibition [4]: Active | Activity (MDA-MB-231 [5]): 1.64% | fold change (FC) [6]: >2 | Activity (MDA-MB-231 [7]): Active | viability at 20 µM (MDA-MB-231 [8]): 77.3% | fold change (FC) [9]: >2 | Activity (MDA-MB-231 [10]): 3.22% | Activity (MDA-MB-231 [11]): Active | inhibition [12]: Active | Activity (MDA-MB-231 [13]): inactive | Activity (MDA-MB-231 [14]): inactive | fold change (FC) [15]: >2 | IC50 [16]: 170 nM | Activity (MDA-MB-231 [17]): 0.91% | fold change (FC) [18]: >2 | fold change (FC) [19]: >2 | fold change (FC) [20]: >2 | inhibition [21]: Active | fold change (FC) [22]: >2 | Ratio IC50 (Homo sapiens [23]): 5 | fold change (FC) [24]: >2 | Activity (MDA-MB-231 [25]): Active | Ratio IC50 (Homo sapiens [26]): 5 | fold change (FC) [27]: >2 | inhibition (MDA-MB-231 [28]): Active | fold change (FC) [29]: >2 | viability at 10 µM (MDA-MB-231 [30]): 88% | fold change (FC) [31]: >2 | Activity (MDA-MB-231 [32]): Active | Activity (MDA-MB-231 [33]): Active | fold change (FC) [34]: >2 | fold change (FC) [35]: >2 | Activity (MDA-MB-231 [36]): 6.91% | Activity (MDA-MB-231 [37]): Active | fold change (FC) [38]: >2 | fold change (FC) [39]: >2
